Experimental findings from PubChem BioAssay (NCI) are described below.

Test systems include CAKI-1 renal; HS 578T breast; LOX IMVI melanoma; MCF7 breast; NCI-H23 lung; OVCAR-3 ovarian; PC-3 prostate; RPMI-8226 leukemia; SF-268 CNS; SW-620 colon; BT-549 breast.
Test in all cases: DTP human tumour cell line panel, 48 h

Each structure is given as a SMILES string.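 The compound was tested at five concentrations on cells cultured in 96-well plates, with a 48-hour exposure period. Abbreviation: GI50, concentration required for 50% inhibition of growth. Definition used: TGI = concentration required for complete inhibition of growth.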 Where a SMILES comes first, the peptide text is derived from it. [ ]: non-standard residue; d: D form. The star is where a group is joined. ξ: configuration not given here. ξW = NC(Cc1c[nH]c2ccccc12)C(=O)O; X30 = O=C(O)[C@H]1CCC[C@H]1N*; ξF = NC(Cc1ccccc1)C(=O)O; Boc = CC(C)(C)OC(=O)*; ξK = NCCCCC(N)C(=O)O; ξT = CC(O)C(N)C(=O)O; tBu = CC(C)(C)*

A word on the TGI: it is the concentration at which net growth stops. Low readings indicate greater sensitivity of the cells, high ones lower sensitivity of the cells. Consider `CC1C(=O)CC[C@@]2(C)C(=O)CCCC12O` (some centres undefined), for which the TGI in the experiment with CAKI-1 renal, in the experiment on HS 578T breast, in the experiment with LOX IMVI melanoma, in the experiment with MCF7 breast, with NCI-H23 lung and in the experiment with OVCAR-3 ovarian was over 100 µM in each case. Moreover, the TGI in the experiment with PC-3 prostate, in the experiment with RPMI-8226 leukemia, in the experiment with SF-268 CNS and in the experiment with SW-620 colon was over 100 µM in each case.
On to `COc1cc(O)c2c(c1O)C(=O)c1cc(C)ncc1C2=O`, for which the concentration for total growth inhibition (TGI) is 45.2 µM in the experiment with LOX IMVI melanoma; 27.2 µM in the experiment on NCI-H23 lung; 45.9 µM with OVCAR-3 ovarian; over 50 µM in the experiment with RPMI-8226 leukemia; over 50 µM in the experiment on SF-268 CNS; over 50 µM in the experiment with SW-620 colon.
For `COC(=O)C1=C(OC(=O)/C(=C/c2c(F)cccc2F)c2ccccc2)C(C(=O)OC)[C@@]2(O)[C@@H](C(=O)OC)[C@H](C)C[C@@H]1[C@@H]2C(=O)OC` (some centres undefined), the TGI in the experiment on BT-549 breast, with CAKI-1 renal, in the experiment on LOX IMVI melanoma, with NCI-H23 lung, in the experiment on OVCAR-3 ovarian and in the experiment on PC-3 prostate was over 100 µM in each case. Also, the total growth inhibition concentration (TGI) in the experiment on SF-268 CNS and with SW-620 colon was over 100 µM each time.
Regarding `Cc1ccc(C(=O)c2[nH]c(Nc3ccc(Cl)cc3)c(C(=S)Nc3ccccc3)c2N)cc1`, the TGI amounted to 20.5 µM in the experiment on BT-549 breast; 30.6 µM in the experiment with CAKI-1 renal; 14.3 µM with LOX IMVI melanoma; 33.6 µM in the experiment with MCF7 breast; 9.1 µM in the experiment on NCI-H23 lung; 56.8 µM in the experiment with OVCAR-3 ovarian. Also, the TGI in the experiment with PC-3 prostate is 23.3 µM; in the experiment on RPMI-8226 leukemia, 18 µM; in the experiment with SF-268 CNS, 23.3 µM; in the experiment on SW-620 colon it was 37.7 µM.
`CCC(C)C(NC(=O)c1c2ccccc2nc2ccccc12)C(=O)O` (centres undefined): the TGI in the experiment on BT-549 breast was 94.1 µM; in the experiment with CAKI-1 renal it was over 100 µM; in the experiment on LOX IMVI melanoma it was over 100 µM; in the experiment on MCF7 breast, over 100 µM; with NCI-H23 lung, over 100 µM; in the experiment with OVCAR-3 ovarian, over 100 µM. The TGI with PC-3 prostate, in the experiment with RPMI-8226 leukemia, in the experiment with SF-268 CNS and in the experiment with SW-620 colon was over 100 µM throughout.
Take `ClCCCC1COc2ccccc2O1` (centres undefined): the TGI in the experiment with BT-549 breast, in the experiment with CAKI-1 renal, in the experiment on MCF7 breast, with OVCAR-3 ovarian, in the experiment on PC-3 prostate and in the experiment with SF-268 CNS was over 100 µM in each case. In the experiment with SW-620 colon, this compound returned a TGI of over 100 µM.
`CCCC(=O)[O-].CCCC(=O)[O-].N.N.N.N.[Co+3].[O-][Cl+3]([O-])([O-])[O-]`: the TGI in the experiment on LOX IMVI melanoma, with NCI-H23 lung, in the experiment on OVCAR-3 ovarian, in the experiment on RPMI-8226 leukemia, with SF-268 CNS and with SW-620 colon was over 100 µM throughout.
As to `Cc1ccc(C(O)/C(=N/N)c2nc3ccc([N+](=O)[O-])cc3[nH]c2=O)cc1` (centres undefined), the TGI in the experiment with LOX IMVI melanoma, with NCI-H23 lung, in the experiment on OVCAR-3 ovarian, with RPMI-8226 leukemia, in the experiment with SF-268 CNS and in the experiment on SW-620 colon was over 100 µM each time.
For `O=c1nc(-c2ccccc2)scc1-c1ccccc1`, the total growth inhibition concentration (TGI) with CAKI-1 renal, in the experiment on NCI-H23 lung, in the experiment with OVCAR-3 ovarian, in the experiment on RPMI-8226 leukemia, in the experiment with SF-268 CNS and in the experiment on SW-620 colon was over 100 µM each time.
On to `NN/C(=N\S(=O)(=O)c1cccc2nsnc12)Nc1ccc(Cl)cc1`, for which the TGI in the experiment with BT-549 breast, in the experiment on CAKI-1 renal, in the experiment on LOX IMVI melanoma, in the experiment with MCF7 breast, in the experiment on NCI-H23 lung and with OVCAR-3 ovarian was over 100 µM in each case. Moreover, the total growth inhibition concentration (TGI) in the experiment with PC-3 prostate, in the experiment on RPMI-8226 leukemia, in the experiment on SF-268 CNS and with SW-620 colon was over 100 µM in each case.
For the compound `CCN1C(=O)C(N=[N+]=[N-])(c2ccccc2)C(=O)c2ccccc21` (centres undefined), the TGI with CAKI-1 renal, in the experiment on LOX IMVI melanoma, in the experiment with NCI-H23 lung, in the experiment with OVCAR-3 ovarian, with RPMI-8226 leukemia and in the experiment on SF-268 CNS was over 100 µM each time. This compound also showed a concentration for total growth inhibition (TGI) in the experiment with SW-620 colon of over 100 µM.
For the compound `CC(C(=O)N1C(=O)N(C(=O)[C@H](C)C(O)c2ccccc2)[C@H](c2ccccc2)[C@H]1c1ccccc1)[C@@H](O)c1ccccc1` (some centres undefined), the total growth inhibition concentration (TGI) in the experiment with BT-549 breast was 71 µM; in the experiment on CAKI-1 renal, 72.4 µM; in the experiment on MCF7 breast, over 100 µM; with NCI-H23 lung, over 100 µM; in the experiment on PC-3 prostate, 83.6 µM; in the experiment with SF-268 CNS, over 100 µM. Besides, in the experiment on SW-620 colon, the TGI is over 100 µM.
Regarding `CC(OC(C)(C)C)C(NC(=O)C(CCCCNC(=O)OC(C)(C)C)NC(=O)C(Cc1c[nH]c2ccccc12)NC(=O)C(N)Cc1ccccc1)C(=O)NC(Cc1ccccc1)C(=O)N[C@@H]1CCC[C@@H]1C(=O)O` (some centres undefined) (H-[ξF][ξW][ξK](Boc)[ξT](tBu)[ξF]-X30), the TGI was over 100 µM in the experiment on CAKI-1 renal; 50.6 µM in the experiment on HS 578T breast; 60 µM in the experiment with LOX IMVI melanoma; 62.5 µM in the experiment with MCF7 breast; over 100 µM in the experiment on NCI-H23 lung; over 100 µM with OVCAR-3 ovarian. Moreover, the concentration for total growth inhibition (TGI) with PC-3 prostate, in the experiment with RPMI-8226 leukemia, with SF-268 CNS and with SW-620 colon was over 100 µM throughout.
As to `CC(=O)O[C@]12CCCCC1C1(O)C(O)CCCC[C@H]12` (some centres undefined), the concentration for total growth inhibition (TGI) in the experiment with LOX IMVI melanoma, in the experiment on NCI-H23 lung, in the experiment on RPMI-8226 leukemia, in the experiment on SF-268 CNS and in the experiment on SW-620 colon was over 100 µM throughout.
What is called GI50 is the concentration at which growth is held to half of that of the control. On to `OCCN1CCN(c2nc(Nc3ccc(-c4nc5ccccc5[nH]4)cc3)c3cn[nH]c3n2)CC1`, for which the GI50 is 1.72 µM with CAKI-1 renal; 2.15 µM with HS 578T breast; 1.63 µM in the experiment on LOX IMVI melanoma; 1.59 µM with MCF7 breast; 1.83 µM in the experiment on NCI-H23 lung; 1.69 µM in the experiment with OVCAR-3 ovarian. Further, the values for the GI50 in the experiment on PC-3 prostate and in the experiment on SW-620 colon were 1.64 µM and 0.464 µM, respectively. The TGI in the experiment on CAKI-1 renal amounted to 3.13 µM; with HS 578T breast, 5.33 µM; in the experiment on LOX IMVI melanoma, 3.13 µM; with MCF7 breast it was 3.54 µM; with NCI-H23 lung, 3.54 µM; in the experiment with OVCAR-3 ovarian, 3.28 µM. Further, the TGI with PC-3 prostate is 3.13 µM; in the experiment on SW-620 colon, 1.87 µM.
